Data on five molecules can be found in PMC2882332, “Species Used for Drug Testing Reveal Different Inhibition Susceptibility for 17beta-Hydroxysteroid Dehydrogenase Type 1” (PLoS ONE, 2010).

SMILES strings stand for the structures.

This assay concerns the target T1, human 17β-HSD 7 (Homo sapiens, UniProt P56937).
T1 construct: made in house; host or cells: E.coli BL21 DE3 Codon Plus RP
T1 sequence (P56937 1-341): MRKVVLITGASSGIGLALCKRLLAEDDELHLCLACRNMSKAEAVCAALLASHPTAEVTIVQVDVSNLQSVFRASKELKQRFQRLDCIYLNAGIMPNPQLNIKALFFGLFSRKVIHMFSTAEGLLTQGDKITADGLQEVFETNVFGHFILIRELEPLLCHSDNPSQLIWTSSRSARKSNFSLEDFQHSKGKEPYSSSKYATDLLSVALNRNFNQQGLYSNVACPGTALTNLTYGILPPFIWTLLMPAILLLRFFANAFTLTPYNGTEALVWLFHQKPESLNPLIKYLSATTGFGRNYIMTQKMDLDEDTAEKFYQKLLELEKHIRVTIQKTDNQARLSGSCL
As to the kind of experiment: In vitro enzymatic activity, recombinant human 17β-HSD 7 (estrone reduction). Format: biochemical. Particulars: 2 µM compound, 15 nM 3H-estrone, NADPH, pH 6.6, read-out: Observed % inhibition. The text has this:
Full length cDNAs of several 17β-HSDs type 1 originating from different species were cloned either into the pQE30 vector (human 17β-HSD 1, coding for acc. no. NP_000404) for expression as His-Tag protein or into a modified pGex-2T vector [63] (mouse 17β-HSD 1, acc. no. NP_034605; rat 17β-HSD 1, acc. no. NP_036983; marmoset 17β-HSD 1, acc. no. AAG01115; porcine 17β-HSD 1, acc. no. NP_001121944) for expression as GST-fusion proteins. The marmoset 17β-HSD 1 enzyme sequence was updated by the missing N-terminal part (AF272013) and the new porcine sequence was submitted to GenBank (NP_001121944). Human 17β-HSDs 2, 4, 5 (AKR1C3, the latter kindly provided by Dr. T. Penning) and 7 were all cloned into the modified pGEX-2T vector. For 17β-HSD 4 only the SDR-domain converting the steroids was subcloned. Plasmids were transformed into E.coli BL21 DE3 Codon Plus RP (Stratagene) and enzyme expression was induced by 0.5 mM IPTG. After 4h incubation at 37°C with continuous shaking bacteria were pelleted by centrifugation at 10.000×g. Pellets were stored until use at −20°C.
The bacteria containing recombinant enzymes were resuspended in PBS and enzymatic assays were performed in 100 mM sodium phosphate buffer at pH 6.6 for the reductive reaction and at pH 7.7 for the oxidative reaction. […] All substrates were purchased from NEN/Perkin Elmer. The cofactors NADPH (Sigma; for reductive reactions) and NAD^+ (Serva, for oxidative reactions) were used at final concentrations of 0.5 mg/ml. […] The incubation at 37°C was stopped with 0.21 M ascorbic acid in methanol∶acetic acid 99∶1 (v∶v) after the time needed to convert approximately 30% of the substrate in a control assay with 1% DMSO, without inhibitor candidates. […] The solvent used was acetonitrile∶water (43∶57, v∶v) at a flow rate of 1 ml/min. Radioactivity was detected by online-scintillation counting (Berthold LB506D) after mixing with ReadyFlowIII (Beckman). Conversion was calculated from integration of substrate and product peaks. […] All assays were run in duplicates of two independent experiments and mean values are reported. The IC50 values were determined by the One Ligand Binding model of SigmaPlot kinetics module.
For orientation: inhibition means the change of the read-out against control, counted positive when it falls. For the molecule `C[C@]12CC[C@@H]3c4ccc(O)cc4CC[C@H]3[C@@H]1[C@@H](CNC(=O)c1ccc(F)cc1)CC2=O` [Compound 1], the inhibition at 2 µM is -3.6%.

Take `C[C@]12CC[C@@H]3c4ccc(O)cc4CC[C@H]3[C@@H]1[C@@H](CCCC(=O)N1CCOCC1)CC2=O` [Compound 2]: the inhibition at 2 µM is -7.1%.

With `COc1ccc(-c2cn(CCC[C@H]3CC(=O)[C@@]4(C)CC[C@@H]5c6ccc(O)cc6CC[C@H]5[C@H]34)nn2)cc1` [Compound 4], the inhibition at 2 µM was -5.8%.

For `Cc1cnc(NC(=O)CC[C@@H]2CC(=O)[C@@]3(C)CC[C@@H]4c5ccc(O)cc5CC[C@H]4[C@H]23)s1` [Compound 3], the inhibition at 2 µM is -9%.

On to `C[C@]12CC[C@@H]3c4ccc(O)cc4CC[C@H]3[C@@H]1C[C@H](CC(=O)NCc1cccnc1)C2=O` [Compound 5, reference compound], for which the inhibition at 2 µM is 0%.
